Reference: US20010007152A1, “RECOMBINANT CONSTRUCTS ENCODING T CELL RECEPTORS SPECIFIC FOR HUMAN HLA-RESTRICTED TUMOR ANTIGENS” (priority 1996, published 2001)

How the values were obtained:
[1] = test system: SV80; experiment: Lysis of tumor cells by peptide-specific CTL; assay type: cell-based, human; details: 6 hours; for Killing of tumor (lysis): SV80, fibroblast, A2 +, Her-2 −, no cytokine preincubation; for Killing of tumor (lysis) + CYT: SV80, tumor preincubated 24 hours with 20 ng/ml γ-IFN and 3 ng/ml TNF-α
[2] = test system: MDA.MB435; experiment: Lysis of tumor cells by peptide-specific CTL; assay type: cell-based, human; details: 6 hours; for Killing of tumor (lysis): MDA.MB435, breast, A2 −, Her-2 +, no cytokine preincubation; for Killing of tumor (lysis) + CYT: MDA.MB435, tumor preincubated 24 hours with 20 ng/ml γ-IFN and 3 ng/ml TNF-α
[3] = test system: CASKI; experiment: Lysis of tumor cells by peptide-specific CTL; assay type: cell-based, human; details: 6 hours; for Killing of tumor (lysis) + CYT: tumor preincubated 24 hours with 20 ng/ml γ-IFN and 3 ng/ml TNF-α; for Killing of tumor (lysis): cervix, A2 +, Her-2 +, no cytokine preincubation
[4] = test system: BT549; experiment: Lysis of tumor cells by peptide-specific CTL; assay type: cell-based, human; details: 6 hours; for Killing of tumor (lysis): BT549, breast, A2 +, Her-2 +, no cytokine preincubation; for Killing of tumor (lysis) + CYT: BT549, tumor preincubated 24 hours with 20 ng/ml γ-IFN and 3 ng/ml TNF-α
[5] = test system: ST486; experiment: Lysis of tumor cells by peptide-specific CTL; assay type: cell-based, human; details: 6 hours; for Killing of tumor (lysis): ST486, lymphoma, A2 +, Her-2 −, no cytokine preincubation; for Killing of tumor (lysis) + CYT: ST486, tumor preincubated 24 hours with 20 ng/ml γ-IFN and 3 ng/ml TNF-α
[6] = test system: JY; experiment: Lysis of tumor cells by peptide-specific CTL; assay type: cell-based, human; details: 6 hours; for Killing of tumor (lysis) + CYT: tumor preincubated 24 hours with 20 ng/ml γ-IFN and 3 ng/ml TNF-α; for Killing of tumor (lysis): lymphoma, A2 +, Her-2 −, no cytokine preincubation
[7] = test system: Hep-G2; experiment: Lysis of tumor cells by peptide-specific CTL; assay type: cell-based, human; details: 6 hours; for Killing of tumor (lysis): Hep-G2, hepatoma, A2 +, Her-2 +, no cytokine preincubation; for Killing of tumor (lysis) + CYT: Hep-G2, tumor preincubated 24 hours with 20 ng/ml γ-IFN and 3 ng/ml TNF-α
[8] = target: T1, HLA A2.1 (UniProt P01901+P04439, D140Y/D185E/D98H/E176V/G131W/I119V/I121R/I166T/N151K/N90K/Q86G/Q94H/R138H/R169H); experiment: Competition assay: inhibition of influenza matrix peptide M1 (58-66) binding to A2.1, read as inhibition of lysis by an M1-specific CTL clone; set-up: species or system human; details: test peptide 10 μg vs influenza matrix peptide 0.1 μg; T2-A2.1/K^b target cells
T1 construct: expressed in transfected cells; host or cells: T2-A2.1/K^b cells
Experimental: Briefly, each test peptide (10 μg) was incubated with radiolabeled target cells (T2-A2.1/K^b, 10^6 target cells labeled with […] ^51Cr at 37° for 1.5 hours) in the presence of an influenza virus matrix protein (0.1 μg). The ability of these peptides to inhibit the binding of the influenza matrix protein peptide MI (58-66) to A2.1 was measured by inhibition of lysis by an M1 (58-66) specific, A2.1 restricted CTL clone.

[9] = test system: OVCAR-5; experiment: Lysis of tumor cells by peptide-specific CTL; assay type: cell-based, human; details: 6 hours; for Killing of tumor (lysis): OVCAR-5, ovarian, A2 +, Her-2 +, no cytokine preincubation; for Killing of tumor (lysis) + CYT: OVCAR-5, tumor preincubated 24 hours with 20 ng/ml γ-IFN and 3 ng/ml TNF-α
[10] = test system: T98G; experiment: Lysis of tumor cells by peptide-specific CTL; assay type: cell-based, human; details: 6 hours; for Killing of tumor (lysis) + CYT: tumor preincubated 24 hours with 20 ng/ml γ-IFN and 3 ng/ml TNF-α; for Killing of tumor (lysis): glioblastoma, A2 +, Her-2 +, no cytokine preincubation
[11] = test system: SAOS.175; experiment: Lysis of tumor cells by peptide-specific CTL; assay type: cell-based, human; details: 6 hours; for Killing of tumor (lysis): SAOS.175, osteosarcoma, A2 +, Her-2 +, no cytokine preincubation; for Killing of tumor (lysis) + CYT: SAOS.175, tumor preincubated 24 hours with 20 ng/ml γ-IFN and 3 ng/ml TNF-α
[12] = test system: U2-OS; experiment: Lysis of tumor cells by peptide-specific CTL; assay type: cell-based, human; details: 6 hours; for Killing of tumor (lysis) + CYT: tumor preincubated 24 hours with 20 ng/ml γ-IFN and 3 ng/ml TNF-α; for Killing of tumor (lysis): osteosarcoma, A2 +, Her-2 +, no cytokine preincubation
[13] = test system: MALME-3M; experiment: Lysis of tumor cells by peptide-specific CTL; assay type: cell-based, human; details: 6 hours; for Killing of tumor (lysis) + CYT: tumor preincubated 24 hours with 20 ng/ml γ-IFN and 3 ng/ml TNF-α; for Killing of tumor (lysis): melanoma, A2 +, Her-2 +, no cytokine preincubation
[14] = test system: SKMEL-5; experiment: Lysis of tumor cells by peptide-specific CTL; assay type: cell-based, human; details: 6 hours; for Killing of tumor (lysis): SKMEL-5, melanoma, A2 +, Her-2 +, no cytokine preincubation; for Killing of tumor (lysis) + CYT: SKMEL-5, tumor preincubated 24 hours with 20 ng/ml γ-IFN and 3 ng/ml TNF-α
[15] = test system: U87G; experiment: Lysis of tumor cells by peptide-specific CTL; assay type: cell-based, human; details: 6 hours; for Killing of tumor (lysis) + CYT: tumor preincubated 24 hours with 20 ng/ml γ-IFN and 3 ng/ml TNF-α; for Killing of tumor (lysis): glioblastoma, A2 +, Her-2 −, no cytokine preincubation
[16] = test system: NCl.H1355; experiment: Lysis of tumor cells by peptide-specific CTL; assay type: cell-based, human; details: 6 hours; for Killing of tumor (lysis): NCl.H1355, lung, A2 +, Her-2 +, no cytokine preincubation; for Killing of tumor (lysis) + CYT: NCl.H1355, tumor preincubated 24 hours with 20 ng/ml γ-IFN and 3 ng/ml TNF-α
[17] = test system: MCF-7; experiment: Lysis of tumor cells by peptide-specific CTL; assay type: cell-based, human; details: 6 hours; for Killing of tumor (lysis): MCF-7, breast, A2 +, Her-2 +, no cytokine preincubation; for Killing of tumor (lysis) + CYT: MCF-7, tumor preincubated 24 hours with 20 ng/ml γ-IFN and 3 ng/ml TNF-α
[18] = test system: MDA.MB231; experiment: Lysis of tumor cells by peptide-specific CTL; assay type: cell-based, human; details: 6 hours; for Killing of tumor (lysis): MDA.MB231, breast, A2 +, Her-2 +, no cytokine preincubation; for Killing of tumor (lysis) + CYT: MDA.MB231, tumor preincubated 24 hours with 20 ng/ml γ-IFN and 3 ng/ml TNF-α
[19] = test system: LG-2; experiment: Lysis of tumor cells by peptide-specific CTL; assay type: cell-based, human; details: 6 hours; for Killing of tumor (lysis): LG-2, EBV-trans., A2 +, Her-2 −, no cytokine preincubation; for Killing of tumor (lysis) + CYT: LG-2, tumor preincubated 24 hours with 20 ng/ml γ-IFN and 3 ng/ml TNF-α
[20] = test system: SW480; experiment: Lysis of tumor cells by peptide-specific CTL; assay type: cell-based, human; details: 6 hours; for Killing of tumor (lysis): SW480, colon, A2 +, Her-2 +, no cytokine preincubation; for Killing of tumor (lysis) + CYT: SW480, tumor preincubated 24 hours with 20 ng/ml γ-IFN and 3 ng/ml TNF-α

In the case of VMAGVGSPYV [H7], the Killing of tumor (lysis) [1] is reported as 2%, the “Killing of tumor (lysis) + CYT” value [1] is reported as 2 and the Killing of tumor (lysis) [2] is reported as 1%. For the same sequence, the “Killing of tumor (lysis) + CYT” value [2] was 1, the “Killing of tumor (lysis) + CYT” value [3] was 20 and the Killing of tumor (lysis) [3] was 9%. For the same sequence, the Killing of tumor (lysis) [4] was 2%, the “Killing of tumor (lysis) + CYT” value [4] was 36 and the Killing of tumor (lysis) [5] was 5%. For the same sequence, the “Killing of tumor (lysis) + CYT” value [5] was 8, the “Killing of tumor (lysis) + CYT” value [6] was 2 and the Killing of tumor (lysis) [6] was 4%. For the same sequence, the Killing of tumor (lysis) [7] was 4%, the “Killing of tumor (lysis) + CYT” value [7] was 29 and the “% INHIBITION” value [8] was 55%. For the same sequence, the Killing of tumor (lysis) [9] was 13%, the “Killing of tumor (lysis) + CYT” value [9] was 23 and the “Killing of tumor (lysis) + CYT” value [10] was 93. The Killing of tumor (lysis) [10] was 29%, the Killing of tumor (lysis) [11] was 27% and the “Killing of tumor (lysis) + CYT” value [11] was 35. The “Killing of tumor (lysis) + CYT” value [12] was 62, the Killing of tumor (lysis) [12] was 30% and the “Killing of tumor (lysis) + CYT” value [13] was 14. For the same sequence, the Killing of tumor (lysis) [13] was 4%, the Killing of tumor (lysis) [14] was 16% and the “Killing of tumor (lysis) + CYT” value [14] was 40. For the same sequence, the “Killing of tumor (lysis) + CYT” value [15] was 1, the Killing of tumor (lysis) [15] was 1% and the Killing of tumor (lysis) [16] was 13%. For the same sequence, the “Killing of tumor (lysis) + CYT” value [16] was 62, the Killing of tumor (lysis) [17] was 7% and the “Killing of tumor (lysis) + CYT” value [17] was 40. For the same sequence, the Killing of tumor (lysis) [18] was 26%, the “Killing of tumor (lysis) + CYT” value [18] was 89 and the Killing of tumor (lysis) [19] was 1%. The “Killing of tumor (lysis) + CYT” value [19] was 3, the Killing of tumor (lysis) [20] was 2% and the “Killing of tumor (lysis) + CYT” value [20] was 17.

For “LVSEFSRMA [H22, Her-2/neu peptide 972-980]”, the “% INHIBITION” value [8] was 14%.

“ELVSEFSRMA [H21, Her-2/neu peptide 971-980]” was tested, and the “% INHIBITION” value [8] was 25%.

“TLQGLGISWL [H6, Her-2/neu peptide 444-453]” was tested, and the “% INHIBITION” value [8] was 56%.

For “DIDETEYHA [H18, Her-2/neu peptide 871-879]”, the “% INHIBITION” value [8] was 37%.

With “TLSPGKNGV [H24, Her-2/neu peptide 1172-1180]” the “% INHIBITION” value [8] was 57%.

“DLLEKGERL [H19, Her-2/neu peptide 933-941]” was tested, and the “% INHIBITION” value [8] was 36%.

With RLLQETELV [H13] the “% INHIBITION” value [8] was 56%.

In the case of “ELVSEFSRM [H20, Her-2/neu peptide 971-979]”, the “% INHIBITION” value [8] is reported as 5%.

For “DLVDAEEYL [H23, Her-2/neu peptide 1016-1024]”, the “% INHIBITION” value [8] was 35%.

With “KIPVAIKVL [H14, Her-2/neu peptide 747-755]” the “% INHIBITION” value [8] was 35%.

In the case of “QLMPYGCLL [H16, Her-2/neu peptide 799-807]”, the “% INHIBITION” value [8] is reported as 50%.

For “VLVKSPNHV [H17, Her-2/neu peptide 851-859]”, the “% INHIBITION” value [8] was 12%.

With “KLVGKLNWA [HIV-9K, HIV POL peptide, known to be immunogenic, used as a control, reference compound]” the Killing of tumor (lysis) [1] was 2%, the “Killing of tumor (lysis) + CYT” value [1] was 2 and the Killing of tumor (lysis) [2] was 4%. For the same sequence, the “Killing of tumor (lysis) + CYT” value [2] was 3, the “Killing of tumor (lysis) + CYT” value [3] was 11 and the Killing of tumor (lysis) [3] was 8%. The Killing of tumor (lysis) [4] was 2%, the “Killing of tumor (lysis) + CYT” value [4] was 15 and the Killing of tumor (lysis) [5] was 1%. For the same sequence, the “Killing of tumor (lysis) + CYT” value [5] was 1, the “Killing of tumor (lysis) + CYT” value [6] was 1 and the Killing of tumor (lysis) [6] was 2%. The Killing of tumor (lysis) [7] was 1%, the “Killing of tumor (lysis) + CYT” value [7] was 8 and the Killing of tumor (lysis) [9] was 10%. The “Killing of tumor (lysis) + CYT” value [9] was 12, the “Killing of tumor (lysis) + CYT” value [10] was 13 and the Killing of tumor (lysis) [10] was 9%. For the same sequence, the Killing of tumor (lysis) [11] was 18%, the “Killing of tumor (lysis) + CYT” value [11] was 11 and the “Killing of tumor (lysis) + CYT” value [12] was 24. For the same sequence, the Killing of tumor (lysis) [12] was 18%, the “Killing of tumor (lysis) + CYT” value [13] was 1 and the Killing of tumor (lysis) [13] was 2%. For the same sequence, the Killing of tumor (lysis) [14] was 5%, the “Killing of tumor (lysis) + CYT” value [14] was 4 and the “Killing of tumor (lysis) + CYT” value [15] was 1. For the same sequence, the Killing of tumor (lysis) [15] was 5%, the Killing of tumor (lysis) [16] was 7% and the “Killing of tumor (lysis) + CYT” value [16] was 25. For the same sequence, the Killing of tumor (lysis) [17] was 3%, the “Killing of tumor (lysis) + CYT” value [17] was 7 and the Killing of tumor (lysis) [18] was 3%. For the same sequence, the “Killing of tumor (lysis) + CYT” value [18] was 14, the Killing of tumor (lysis) [19] was 1% and the “Killing of tumor (lysis) + CYT” value [19] was 1. For the same sequence, the Killing of tumor (lysis) [20] was 1% and the “Killing of tumor (lysis) + CYT” value [20] was 4.

For HLYQGOQW [H12], the “% INHIBITION” value [8] was 15%.

For “VLQGLPREYV [H8, Her-2/neu peptide 546-555]”, the “% INHIBITION” value [8] was 43%.
